Measured values: patent publication US8829007B2 (priority 2009, dated 2014)
pIC50: −log10 of the molar value.

Test system: influenza A virus (A/PR/8/34)
Experiment: microbe, parasite or virus in culture
Format: cell-based
Conditions: Influenza A virus, PR/8, MDCK, MDCK cells infected with A/PR/8/34, cell protection (CPE); read-out: IC50 (mean all)

Row | Molecule | pIC50
1 | OC1CCCC[C@@H]1CNc1nc(-c2c[nH]c3ncc(Cl)cc23)ncc1F (stereo partly drawn) [Compound 12, (2R)-2-((2-(5-chloro-1H-pyrrolo[2,3-b]pyridin-3-yl)-5-fluoropyrimidin-4-ylamino)methyl)cyclohexanol] | < 4.70
2 | OC1CCCCC1Nc1nc(-c2c[nH]c3ncc(Cl)cc23)ncc1F (stereo not shown) [Compound 13, 2-(2-(5-chloro-1H-pyrrolo[2,3-b]pyridin-3-yl)-5-fluoropyrimidin-4-ylamino)cyclohexanol] | > 5.30
3 | CCOC(=O)CCCC(=O)N1CCC[C@@H](CNc2nc(-c3c[nH]c4ncc(Cl)cc34)ncc2F)C1 [Compound 19, (S)-ethyl 5-(3-((2-(5-chloro-1H-pyrrolo[2,3-b]pyridin-3-yl)-5-fluoropyrimidin-4-ylamino)methyl)piperidin-1-yl)-5-oxopentanoate] | < 4.70
4 | CC(C)(C)NC(=O)N1CCC[C@@H](CNc2nc(-c3c[nH]c4ncc(Cl)cc34)ncc2F)C1 [Compound 20, (S)—N-tert-butyl-3-((2-(5-chloro-1H-pyrrolo[2,3-b]pyridin-3-3-yl)-5-fluoropyrimidin-4-ylamino)methyl)piperidine-1-carboxamide] | 4.70 to 5.30
5 | COCCOC(=O)N1CCC[C@@H](CNc2nc(-c3c[nH]c4ncc(Cl)cc34)ncc2F)C1 [Compound 24, (S)-2-methoxyethyl 3-((2-(5-chloro-1H-pyrrolo[2,3-b]pyridin-3-yl)-5-fluoropyrimidin-4-ylamino)methyl)piperidine-1-carboxylate] | < 4.70
6 | CNC(=O)N1CCC[C@@H](CNc2nc(-c3c[nH]c4ncc(Cl)cc34)ncc2F)C1 [Compound 29, (S)-3-((2-(5-chloro-1H-pyrrolo[2,3-b]pyridin-3-yl)-5-fluoropyrimidin-4-ylamino)methyl)-N-methylpiperidine-1-carboxamide] | 4.70 to 5.30
7 | CC(C)C(=O)N1CCC[C@@H](CNc2nc(-c3c[nH]c4ncc(Cl)cc34)ncc2F)C1 [Compound 34, (S)-1-(3-((2-(5-chloro-1H-pyrrolo[2,3-b]pyridin-3-yl)-5-fluoropyrimidin-4-ylamino)methyl)piperidin-1-yl)-2-methylpropan-1-one] | > 5.30
8 | CC(C)OC(=O)N1CCC[C@@H](CNc2nc(-c3c[nH]c4ncc(Cl)cc34)ncc2F)C1 [Compound 35, (S)-isopropyl 3-((2-(5-chloro-1H-pyrrolo[2,3-b]pyridin-3-yl)-5-fluoropyrimidin-4-ylamino)methyl)piperidine-1-carboxylate] | < 4.70
9 | O=C(Nc1cccnc1)N1CCC[C@@H](CNc2nc(-c3c[nH]c4ncc(Cl)cc34)ncc2F)C1 [Compound 40, (S)-3-((2-(5-chloro-1H-pyrrolo[2,3-b]pyridin-3-yl)-5-fluoropyrimidin-4-ylamino)methyl)-N-(pyridin-3-yl)piperidine-1-carboxamide] | < 4.70

Same assay, conditions: Influenza A virus, PR/8, MDCK, mean all; A/PR/8/34 infected MDCK cells, CPE assay; read-out: IC50

Row | Molecule | pIC50
10 | CCC(=O)N[C@@H]1CCCC[C@@H]1Nc1nc(-c2c[nH]c3ncc(Cl)cc23)ncc1F (relative stereo) [Compound 333, N-[cis-2-[[2-(5-chloro-1H-pyrrolo[2,3-b]pyridin-3-yl)-5-fluoro-pyrimidin-4-yl]amino]cyclohexyl]propanamide] | 4.70 to 5.30
11 | CCCC(=O)N[C@@H]1CCCC[C@@H]1Nc1nc(-c2c[nH]c3ncc(Cl)cc23)ncc1F (relative stereo) [Compound 334, N-[cis-2-[[2-(5-chloro-1H-pyrrolo[2,3-b]pyridin-3-yl)-5-fluoro-pyrimidin-4-yl]amino]cyclohexyl]butanamide] | 4.70 to 5.30
12 | O=C(N[C@@H]1CCCC[C@@H]1Nc1nc(-c2c[nH]c3ncc(Cl)cc23)ncc1F)C1CCCC1 (relative stereo) [Compound 335, N-[cis-2-[[2-(5-chloro-1H-pyrrolo[2,3-b]pyridin-3-yl)-5-fluoro-pyrimidin-4-yl]amino]cyclohexyl]cyclopentanecarboxamide] | < 4.70
13 | O=C(N[C@@H]1CCCC[C@@H]1Nc1nc(-c2c[nH]c3ncc(Cl)cc23)ncc1F)c1ccccc1 (relative stereo) [Compound 336, N-[cis-2-[[2-(5-chloro-1H-pyrrolo[2,3-b]pyridin-3-yl)-5-fluoro-pyrimidin-4-yl]amino]cyclohexyl]benzamide] | < 4.70
14 | CCCS(=O)(=O)N[C@@H]1CCCC[C@@H]1Nc1nc(-c2c[nH]c3ncc(Cl)cc23)ncc1F (relative stereo) [Compound 338, N-[cis-2-[[2-(5-chloro-1H-pyrrolo[2,3-b]pyridin-3-yl)-5-fluoro-pyrimidin-4-yl]amino]cyclohexyl]propane-1-sulfonamide] | < 4.70
15 | CCCNC(=O)N[C@@H]1CCCC[C@@H]1Nc1nc(-c2c[nH]c3ncc(Cl)cc23)ncc1F (relative stereo) [Compound 339, 1-[cis-2-[[2-(5-chloro-1H-pyrrolo[2,3-b]pyridin-3-yl)-5-fluoro-pyrimidin-4-yl]amino]cyclohexyl]-3-propyl-urea] | 4.70 to 5.30
16 | CCC(=O)N[C@@H]1CCCC[C@@H]1Nc1nc(-c2c[nH]c3ncccc23)ncc1F (relative stereo) [Compound 341, N-[cis-2-[[5-fluoro-2-(1H-pyrrolo[2,3-b]pyridin-3-yl)pyrimidin-4-yl]amino]-cyclohexyl]propanamide] | < 4.70
17 | CCCC(=O)N[C@@H]1CCCC[C@@H]1Nc1nc(-c2c[nH]c3ncccc23)ncc1F (relative stereo) [Compound 342, N-[cis-2-[[5-fluoro-2-(1H-pyrrolo[2,3-b]pyridin-3-yl)pyrimidin-4-yl]amino]cyclohexyl]butanamide] | < 4.70
18 | O=C(N[C@@H]1CCCC[C@@H]1Nc1nc(-c2c[nH]c3ncccc23)ncc1F)C1CCCC1 (relative stereo) [Compound 343, N-[cis-2-[[5-fluoro-2-(1H-pyrrolo[2,3-b]pyridin-3-yl)pyrimidin-4-yl]amino]cyclohexyl]cyclopentanecarboxamide] | < 4.70
19 | O=C(N[C@@H]1CCCC[C@@H]1Nc1nc(-c2c[nH]c3ncccc23)ncc1F)c1ccccc1 (relative stereo) [Compound 344, N-[cis-2-[[5-fluoro-2-(1H-pyrrolo[2,3-b]pyridin-3-yl)pyrimidin-4-yl]amino]cyclohexyl]benzamide] | < 4.70
20 | CCCS(=O)(=O)N[C@@H]1CCCC[C@@H]1Nc1nc(-c2c[nH]c3ncccc23)ncc1F (relative stereo) [Compound 346, N-[cis-2-[[5-fluoro-2-(1H-pyrrolo[2,3-b]pyridin-3-yl)pyrimidin-4-yl]amino]cyclohexyl]propane-1-sulfonamide] | < 4.70
21 | CCCNC(=O)N[C@@H]1CCCC[C@@H]1Nc1nc(-c2c[nH]c3ncccc23)ncc1F (relative stereo) [Compound 347, 1-[cis-2-[[5-fluoro-2-(1H-pyrrolo[2,3-b]pyridin-3-yl)pyrimidin-4-yl]amino]cyclohexyl]-3-propyl-urea] | < 4.70
22 | CCC(=O)N[C@@H]1CCCC[C@H]1Nc1nc(-c2c[nH]c3ncc(Cl)cc23)ncc1F (relative stereo) [Compound 349, N-[trans-2-[[2-(5-chloro-1H-pyrrolo[2,3-b]pyridin-3-yl)-5-fluoro-pyrimidin-4-yl]amino]cyclohexyl]propanamide] | < 4.70
23 | CCCC(=O)N[C@@H]1CCCC[C@H]1Nc1nc(-c2c[nH]c3ncc(Cl)cc23)ncc1F (relative stereo) [Compound 363, N-[trans-2-[[2-(5-chloro-1H-pyrrolo[2,3-b]pyridin-3-yl)-5-fluoro-pyrimidin-4-yl]amino]cyclohexyl]butanamide] | < 4.70
24 | O=C(N[C@@H]1CCCC[C@H]1Nc1nc(-c2c[nH]c3ncc(Cl)cc23)ncc1F)c1ccccc1 (relative stereo) [Compound 365, N-[trans-2-[[2-(5-chloro-1H-pyrrolo[2,3-b]pyridin-3-yl)-5-fluoro-pyrimidin-4-yl]amino]cyclohexyl]benzamide] | < 4.70
25 | CCCS(=O)(=O)N[C@@H]1CCCC[C@H]1Nc1nc(-c2c[nH]c3ncc(Cl)cc23)ncc1F (relative stereo) [Compound 367, N-[trans-2-[[2-(5-chloro-1H-pyrrolo[2,3-b]pyridin-3-yl)-5-fluoro-pyrimidin-4-yl]amino]cyclohexyl]propane-1-sulfonamide] | 4.70 to 5.30
26 | CCCNC(=O)N[C@@H]1CCCC[C@H]1Nc1nc(-c2c[nH]c3ncc(Cl)cc23)ncc1F (relative stereo) [Compound 368, 1-[trans-2-[[2-(5-chloro-1H-pyrrolo[2,3-b]pyridin-3-yl)-5-fluoro-pyrimidin-4-yl]amino]cyclohexyl]-3-propyl-urea] | < 4.70
27 | CNC(=O)N[C@@H]1CCCC[C@@H]1Nc1nc(-c2c[nH]c3ncc(Cl)cc23)ncc1F (relative stereo) [Compound 430, 1-[cis-2-[[2-(5-chloro-1H-pyrrolo[2,3-b]pyridin-3-yl)-5-fluoro-pyrimidin-4-yl]amino]cyclohexyl]-3-methyl-urea] | > 5.30
28 | CN(C)C(=O)N[C@@H]1CCCC[C@@H]1Nc1nc(-c2c[nH]c3ncc(Cl)cc23)ncc1F (relative stereo) [Compound 431, 3-[cis-2-[[2-(5-chloro-1H-pyrrolo[2,3-b]pyridin-3-yl)-5-fluoro-pyrimidin-4-yl]amino]cyclohexyl]-1,1-dimethyl-urea] | > 5.30
29 | COC(=O)N[C@@H]1CCCC[C@@H]1Nc1nc(-c2c[nH]c3ncc(Cl)cc23)ncc1F (relative stereo) [Compound 432, Methyl N-[cis-2-[[2-(5-chloro-1H-pyrrolo[2,3-b]pyridin-3-yl)-5-fluoro-pyrimidin-4-yl]amino]cyclohexyl]carbamate] | < 4.70

Same assay, conditions: MDCK cells infected with A/PR/8/34, cell protection (CPE); read-out: IC50 (mean all)

Row | Molecule | pIC50
30 | NC1CCCCC1Nc1nc(-c2c[nH]c3ncccc23)ncc1F (stereo not shown) [Compound 4, N1-(5-fluoro-2-(1H-pyrrolo[2,3-b]pyridin-3-yl)pyrimidin-4-yl)cyclohexane-1,2-diamine] | < 4.70

Same assay, conditions: read-out: IC50

Row | Molecule | pIC50
31 | 1-[trans-2-[[2-(5-chloro-1H-pyrrolo[2,3-b]pyridin-3-yl)-5-fluoro-pyrimidin-4-yl]amino]cyclohexyl]-3-propyl-urea [Compound 350] | 4.70 to 5.30
